Measurements as given in US10047096B2, “Substituted pyridobenzodiazepinone-derivatives and use thereof” (Bayer Pharma Aktiengesellschaft, priority 2014, dated 2018).

Columns and labels:
human PDGFRβ = human PDGFRβ (Homo sapiens (Human), UniProt P09619); experiment: PDGFRβ kinase assay (PDGFRβ-HTRF); type: biochemical; conditions: 10 μM ATP; some mean values from multiple determinations
Outline: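 GST-fused human PDGFRβ fragment (R561-L1106) from Sf9 cells was preincubated 15 min with compound in 50 mM HEPES pH 7.5, 10 mM MgCl2, 2.5 mM DTT, 0.01% Triton X-100; substrate was biotinylated poly-Glu,Tyr (4:1).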

[1] = biological target: pPDGFRβ in normal human dermal fibroblasts (NHDF) (Homo sapiens (Human), UniProt P09619); experiment: Cellular pPDGFRβ inhibition assay; type: cell-based; conditions: NHDF stimulated with 50 ng/ml PDGF-BB, 1 h
Sequence of pPDGFRβ in normal human dermal fibroblasts (NHDF) (P09619 33-1106): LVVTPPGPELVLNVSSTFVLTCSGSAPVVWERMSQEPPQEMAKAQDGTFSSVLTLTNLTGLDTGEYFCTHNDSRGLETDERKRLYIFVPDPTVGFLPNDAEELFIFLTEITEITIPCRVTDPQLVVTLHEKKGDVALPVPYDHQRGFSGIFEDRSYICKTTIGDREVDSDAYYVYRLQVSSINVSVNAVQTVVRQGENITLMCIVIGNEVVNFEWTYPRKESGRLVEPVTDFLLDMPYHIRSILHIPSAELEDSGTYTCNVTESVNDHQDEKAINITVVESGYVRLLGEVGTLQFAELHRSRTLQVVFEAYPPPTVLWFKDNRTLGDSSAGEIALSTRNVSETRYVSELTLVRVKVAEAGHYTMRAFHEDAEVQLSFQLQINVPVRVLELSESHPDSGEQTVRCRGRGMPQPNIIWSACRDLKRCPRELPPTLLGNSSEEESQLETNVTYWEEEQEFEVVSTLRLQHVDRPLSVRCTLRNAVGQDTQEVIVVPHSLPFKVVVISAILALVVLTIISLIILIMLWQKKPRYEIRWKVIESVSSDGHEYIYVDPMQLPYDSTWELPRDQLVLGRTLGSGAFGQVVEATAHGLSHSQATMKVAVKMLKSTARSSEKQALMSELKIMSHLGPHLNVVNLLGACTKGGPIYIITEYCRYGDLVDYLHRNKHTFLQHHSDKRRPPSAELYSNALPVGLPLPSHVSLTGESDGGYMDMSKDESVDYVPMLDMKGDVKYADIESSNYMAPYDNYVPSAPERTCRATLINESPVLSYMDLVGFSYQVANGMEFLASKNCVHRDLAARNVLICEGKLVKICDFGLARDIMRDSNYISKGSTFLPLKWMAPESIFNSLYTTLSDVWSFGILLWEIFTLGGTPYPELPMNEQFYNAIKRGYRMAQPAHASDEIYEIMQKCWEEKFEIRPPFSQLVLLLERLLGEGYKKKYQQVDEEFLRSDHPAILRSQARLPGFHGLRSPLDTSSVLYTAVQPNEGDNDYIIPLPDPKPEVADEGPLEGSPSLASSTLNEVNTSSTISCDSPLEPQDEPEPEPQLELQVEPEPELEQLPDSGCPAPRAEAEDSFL
Experimental: Thereafter, 50 ng/ml recombinant human PDGF-BB (R&D Systems, Cat. No. 220-BB-050) and a dilution series of the test substances to be examined in DMSO were added to the cells. The total volume per well was 100 μl. After incubation under the abovementioned conditions for one hour, the Opti-MEM® I Reduced Serum Medium was tapped out and discarded. Subsequently, the lysis buffer [Phospho PDGFRβ (Tyr751) Assay Whole Cell Lysate Kit, MSD, Cat. No. K150DVD-2] was made up according to the manufacturer's instructions and 70 μl of this mixture per well were added. The lysed cell samples were either stored at −20° C. or analysed immediately after the lysis in a Meso Scale SECTOR® Imager 2400 according to the abovementioned manufacturer's instructions. The measurement data were presented as percentage PDGFRβ stimulation compared to PDGF-BB-stimulated but substance-untreated cells. The IC50 values were calculated by employing the nonlinear regression (curve fit) function of GraphPad Prism 6 (La Jolla, Calif., USA).

Sequence of human PDGFRβ (P09619 561-1106): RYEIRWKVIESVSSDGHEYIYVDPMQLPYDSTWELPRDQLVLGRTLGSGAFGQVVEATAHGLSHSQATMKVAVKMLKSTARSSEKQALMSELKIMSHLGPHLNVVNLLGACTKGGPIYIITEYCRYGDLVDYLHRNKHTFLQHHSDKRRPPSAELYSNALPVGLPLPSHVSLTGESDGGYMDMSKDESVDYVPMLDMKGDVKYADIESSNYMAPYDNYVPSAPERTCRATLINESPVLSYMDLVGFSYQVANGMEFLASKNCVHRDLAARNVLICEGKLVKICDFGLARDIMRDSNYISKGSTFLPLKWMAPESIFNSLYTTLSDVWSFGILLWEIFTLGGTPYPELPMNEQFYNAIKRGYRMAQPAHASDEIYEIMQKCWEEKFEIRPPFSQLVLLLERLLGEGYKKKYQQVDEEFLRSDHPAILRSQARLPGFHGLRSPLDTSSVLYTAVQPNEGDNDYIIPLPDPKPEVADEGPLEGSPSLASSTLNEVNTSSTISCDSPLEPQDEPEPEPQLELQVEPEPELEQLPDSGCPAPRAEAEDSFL

IC50 (human PDGFRβ) | IC50 [1] | SMILES
1.15 nM | 22.1 nM | CCN(Cc1ccc2c(c1)NC(=O)c1c(Nc3cc(O)c(C)cc3F)ccnc1N2)C(C)C [Example 51, 8-{[Ethyl(isopropyl)amino]methyl}-4-[(2-fluoro-5-hydroxy-4-methylphenyl)amino]-6,11-dihydro-5H-pyrido[2,3-b][1,5]benzodiazepin-5-one]
0.905 nM | 60.7 nM | CCN(CCOC)Cc1ccc2c(c1)NC(=O)c1c(Nc3cc(O)c(C)cc3F)ccnc1N2 [Example 55, 8-{[Ethyl(2-methoxyethyl)amino]methyl}-4-[(2-fluoro-5-hydroxy-4-methylphenyl)amino]-6,11-dihydro-5H-pyrido[2,3-b][1,5]benzodiazepin-5-one]
0.68 nM | 14.3 nM | Cc1cc(F)c(Nc2ccnc3c2C(=O)Nc2cc(CN4C[C@H](O)C[C@H]4CO)ccc2N3)cc1O [Example 64, 4-[(2-Fluoro-5-hydroxy-4-methylphenyl)amino]-8-{[(2S,4R)-4-hydroxy-2-(hydroxymethyl)pyrrolidin-1-yl]methyl}-6,11-dihydro-5H-pyrido[2,3-b][1,5]benzodiazepin-5-one]
1.58 nM | 11.3 nM | Cc1cc(F)c(Nc2ccnc3c2C(=O)Nc2cc(CN[C@H]4CC[C@H](O)CC4)ccc2N3)cc1O [Example 76, 4-[(2-Fluoro-5-hydroxy-4-methylphenyl)amino]-8-{[(trans-4-hydroxycyclohexyl)amino]methyl}-6,11-dihydro-5H-pyrido[2,3-b][1,5]benzodiazepin-5-one]
0.974 nM | 32.6 nM | Cc1cc(F)c(Nc2ccnc3c2C(=O)Nc2cc(CNC(CO)CO)ccc2N3)cc1O [Example 78, 8-{[(1,3-Dihydroxypropan-2-yl)amino]methyl}-4-[(2-fluoro-5-hydroxy-4-methylphenyl)amino]-6,11-dihydro-5H-pyrido[2,3-b][1,5]benzodiazepin-5-one]
12.1 nM | 890 nM | CCN(CCO)C(=O)c1ccc2c(c1)NC(=O)c1c(Nc3cc(O)c(C)cc3F)ccnc1N2 [Example 162, N-Ethyl-4-[(2-fluoro-5-hydroxy-4-methylphenyl)amino]-N-(2-hydroxyethyl)-5-oxo-6,11-dihydro-5H-pyrido[2,3-b][1,5]benzodiazepine-8-carboxamide]
1.25 nM | 106 nM | CCN(CC)Cc1ccc2c(c1)NC(=O)c1c(Nc3cc(O)c(Cl)cc3F)ccnc1N2 [Example 174, 4-[(4-Chloro-2-fluoro-5-hydroxyphenyl)amino]-8-[(diethylamino)methyl]-6,11-dihydro-5H-pyrido[2,3-b][1,5]benzodiazepin-5-one]
1.51 nM | 41.3 nM | Cc1cc(F)c(Nc2ccnc3c2C(=O)Nc2cc(CNC4CC(O)C4)ccc2N3)cc1O (stereo not drawn) [Example 187, 4-[(2-Fluoro-5-hydroxy-4-methylphenyl)amino]-8-{[(3-hydroxycyclobutyl)amino]methyl}-6,11-dihydro-5H-pyrido[2,3-b][1,5]benzodiazepin-5-one]
0.962 nM | 49.8 nM | Cc1cc(F)c(Nc2ccnc3c2C(=O)Nc2cc(CN(C)CCO)ccc2N3)cc1O [Example 198, 4-[(2-Fluoro-5-hydroxy-4-methylphenyl)amino]-8-{[(2-hydroxyethyl)(methyl)amino]methyl}-6,11-dihydro-5H-pyrido[2,3-b][1,5]benzodiazepin-5-one]
1.55 nM | 39.1 nM | Cc1cc(F)c(Nc2ccnc3c2C(=O)Nc2cc(CN(C)C[C@H](C)O)ccc2N3)cc1O [Example 202, 4-[(2-Fluoro-5-hydroxy-4-methylphenyl)amino]-8-({[(2S)-2-hydroxypropyl](methyl)amino}methyl)-6,11-dihydro-5H-pyrido[2,3-b][1,5]benzodiazepin-5-one]
0.739 nM | 215 nM | Cc1cc(F)c(Nc2ccnc3c2C(=O)Nc2cc(CN(C)CCN)ccc2N3)cc1O [Example 209, 8-{[(2-Aminoethyl)(methyl)amino]methyl}-4-[(2-fluoro-5-hydroxy-4-methylphenyl)amino]-6,11-dihydro-5H-pyrido[2,3-b][1,5]benzodiazepin-5-one]
6.38 nM | 554 nM | Cc1cc(F)c(Nc2ccnc3c2C(=O)Nc2cc(CN4CCN(CC(F)F)CC4)ccc2N3)cc1O [Example 227, 8-{[4-(2,2-Difluoroethyl)piperazin-1-yl]methyl}-4-[(2-fluoro-5-hydroxy-4-methylphenyl)amino]-6,11-dihydro-5H-pyrido[2,3-b][1,5]benzodiazepin-5-one]
